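Where inhibition never reached the appropriate level, the endpoint shown equals the highest concentration tested. Otherwise, values were interpolated linearly from a five-concentration, 48-hour dose response in 96-well plates. GI50: concentration for 50% inhibition of growth.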 Active and inactive are the calls of the source. No stated cut-off is given here; in the data, active = GI50 up to about 1.1 µM and inactive = higher.
Experiments:
Assay in all cases: inhibition of tumour cell growth, NCI panel, 48 h
MDA-N = tested on: MDA-N
MDA-MB-435 = tested on: MDA-MB-435
TK-10 = tested on: TK-10
NCI-H460 = tested on: NCI-H460
Hs-578T = tested on: Hs-578T
BT-549 = tested on: BT-549
SNB-19 = tested on: SNB-19
A498 = tested on: A498
HT-29 = tested on: HT-29
RPMI-8226 = tested on: RPMI-8226
SF-295 = tested on: SF-295
DU-145 = tested on: DU-145
MCF7 = tested on: MCF7
LOX IMVI = tested on: LOX IMVI
SNB-75 = tested on: SNB-75
COLO 205 = tested on: COLO 205
SK-MEL-2 = tested on: SK-MEL-2
KM12 = tested on: KM12
M14 = tested on: M14
HOP-62 = tested on: HOP-62

Measured: GI50

O=c1c2cc(I)ccc2nc(SCc2nncs2)n1Cc1ccccc1
inactive: MDA-N 23 µM | MDA-MB-435 19.2 µM | TK-10 29.5 µM | NCI-H460 7.62 µM | Hs-578T 16.3 µM | BT-549 > 100 µM | SNB-19 19.5 µM | A498 19.7 µM | HT-29 31.8 µM | RPMI-8226 6.76 µM | SF-295 13.2 µM | DU-145 23.1 µM | MCF7 35.6 µM | LOX IMVI 29.5 µM | SNB-75 19.1 µM | COLO 205 20.2 µM | SK-MEL-2 16.1 µM | KM12 11.8 µM | M14 9.06 µM | HOP-62 20.3 µM

CC(C)=CCC[C@@H](C)C1=C(O)C(=O)C(C)=C(Nc2ccccc2Br)C1=O
inactive: MDA-N 14.1 µM | MDA-MB-435 19.9 µM | TK-10 22.4 µM | NCI-H460 13.4 µM | Hs-578T 13.8 µM | BT-549 14 µM | SNB-19 16.4 µM | A498 7.19 µM | HT-29 19.6 µM | RPMI-8226 8.24 µM | SF-295 3.85 µM | DU-145 14.4 µM | MCF7 18.2 µM | LOX IMVI 11.9 µM | SNB-75 15.4 µM | COLO 205 15.9 µM | SK-MEL-2 13.3 µM | KM12 12.5 µM | M14 15.2 µM | HOP-62 12.4 µM

Cc1ccc(S(=O)(=O)OC2=C/C(=N\c3onc(C)c3C)c3ccccc3C2=O)cc1
inactive: MDA-N 25.2 µM | MDA-MB-435 16.1 µM | TK-10 36.6 µM | NCI-H460 32.8 µM | Hs-578T 38.5 µM | BT-549 33.7 µM | SNB-19 26.7 µM | A498 > 100 µM | HT-29 34.2 µM | RPMI-8226 7.96 µM | SF-295 32.4 µM | DU-145 51.6 µM | MCF7 17.3 µM | LOX IMVI 18.6 µM | SNB-75 45.7 µM | COLO 205 86.5 µM | SK-MEL-2 12.9 µM | KM12 20.2 µM | M14 18.8 µM | HOP-62 23.6 µM

NC(CC1=CS(=O)(=O)c2ccc(Cl)cc21)C(=O)O (stereo not drawn)
inactive: MDA-N > 100 µM | MDA-MB-435 > 100 µM | TK-10 > 100 µM | NCI-H460 89.9 µM | Hs-578T 70.5 µM | BT-549 > 100 µM | SNB-19 > 100 µM | A498 > 100 µM | HT-29 > 100 µM | RPMI-8226 > 100 µM | SF-295 83.6 µM | DU-145 > 100 µM | MCF7 92.3 µM | LOX IMVI > 100 µM | SNB-75 20.6 µM | COLO 205 > 100 µM | SK-MEL-2 > 100 µM | KM12 > 100 µM | M14 > 100 µM | HOP-62 > 100 µM

COc1ccc(C2SCC(=O)N2NC(=O)C(C)Oc2ccccc2C)cc1 (stereo not drawn)
inactive: MDA-N 86.7 µM | MDA-MB-435 82.8 µM | TK-10 > 100 µM | NCI-H460 > 100 µM | Hs-578T > 100 µM | BT-549 > 100 µM | SNB-19 > 100 µM | A498 46 µM | HT-29 95.9 µM | RPMI-8226 41.5 µM | SF-295 60.8 µM | DU-145 > 100 µM | MCF7 54.1 µM | LOX IMVI 60.1 µM | SNB-75 > 100 µM | COLO 205 > 100 µM | SK-MEL-2 92.7 µM | KM12 > 100 µM | M14 > 100 µM | HOP-62 > 100 µM

NCCN1C(=O)c2cc(Cl)c(Cl)cc2C1(O)c1ccc(Cl)cc1 (stereo not drawn)
inactive: MDA-N 1.85 µM | MDA-MB-435 1.68 µM | TK-10 1.92 µM | NCI-H460 1.79 µM | Hs-578T 2.74 µM | BT-549 3.62 µM | SNB-19 2.82 µM | A498 2.92 µM | HT-29 1.89 µM | RPMI-8226 2.44 µM | SF-295 2.01 µM | DU-145 2.69 µM | MCF7 1.83 µM | LOX IMVI 1.7 µM | SNB-75 2.28 µM | COLO 205 1.65 µM | SK-MEL-2 1.84 µM | KM12 2.32 µM | M14 1.77 µM | HOP-62 1.85 µM

c1ccc(C2=Nc3cccc4cccc(c34)N2)cc1
inactive: MDA-N 45.3 µM | MDA-MB-435 48.8 µM | TK-10 48.9 µM | NCI-H460 57 µM | Hs-578T 58.1 µM | BT-549 > 44.2 µM | SNB-19 > 100 µM | A498 > 100 µM | HT-29 43.5 µM | RPMI-8226 22.6 µM | SF-295 58.2 µM | DU-145 > 90.2 µM | MCF7 40.8 µM | LOX IMVI 23.5 µM | SNB-75 > 90.6 µM | COLO 205 18.6 µM | SK-MEL-2 > 46.3 µM | KM12 28.3 µM | M14 44.7 µM | HOP-62 > 100 µM

Cc1cc(S(=O)(=O)Nc2nc3ccccc3[nH]2)c(S)cc1Cl
inactive: MDA-N > 100 µM | MDA-MB-435 49.8 µM | TK-10 > 100 µM | NCI-H460 32.7 µM | Hs-578T 70 µM | BT-549 > 100 µM | SNB-19 72.3 µM | A498 > 100 µM | HT-29 > 100 µM | RPMI-8226 34.6 µM | SF-295 53.1 µM | DU-145 > 100 µM | MCF7 71 µM | LOX IMVI 19.3 µM | SNB-75 > 100 µM | COLO 205 82.2 µM | SK-MEL-2 30.9 µM | KM12 37.5 µM | M14 > 100 µM | HOP-62 39.4 µM

CCCCn1c(C)c(C(=O)OCC)c2cc(OCc3ccc(C(=O)Nn4c(C)ccc4C)cc3)c(Br)cc21
inactive: MDA-N > 100 µM | MDA-MB-435 > 100 µM | TK-10 > 100 µM | NCI-H460 > 100 µM | Hs-578T > 100 µM | BT-549 > 100 µM | SNB-19 > 100 µM | A498 > 100 µM | HT-29 > 100 µM | RPMI-8226 > 100 µM | SF-295 > 100 µM | DU-145 > 100 µM | MCF7 > 100 µM | LOX IMVI > 100 µM | SNB-75 > 100 µM | COLO 205 > 100 µM | SK-MEL-2 > 100 µM | KM12 > 100 µM | M14 > 100 µM | HOP-62 > 100 µM

COc1ccc(/C=C2\N=C(c3ccccc3)N(C3Nc4cc5c(cc4S3)NC(N3C(=O)/C(=C/c4ccc(OC)cc4)N=C3c3ccccc3)S5)C2=O)cc1 (stereo not drawn)
inactive: MDA-N 37.9 µM | MDA-MB-435 56.6 µM | TK-10 > 100 µM | NCI-H460 12.7 µM | Hs-578T 48.5 µM | BT-549 23.3 µM | A498 40.4 µM | HT-29 46.2 µM | RPMI-8226 29.5 µM | SF-295 > 100 µM | DU-145 50.5 µM | MCF7 43.6 µM | LOX IMVI 37.3 µM | SNB-75 22.5 µM | SK-MEL-2 31.6 µM | KM12 54.6 µM | M14 > 100 µM | HOP-62 41.2 µM

Source: ChEMBL document CHEMBL1201862, “PubChem BioAssay data set” (2004)
